Marks after values point to notes of the source that are not given here.
Test system: normal male Wistar rats
Assay: Acute Starch Tolerance Test (STT), glycemia after oral wheat starch
Type: in vivo, rat
Details: 5 mg/kg oral
Method: An acute Starch Tolerance Test (STT) was performed by the administration by oral gavage of a 7.5% purified wheat starch solution at 1.5 g/kg of body weight to normal male Wistar rats. The effect of a concomitantly administered hot water extract formulation from Rhodamnia cinerea leaves (BTP-00167-14; ref. example 1.2) on the glycemic index was measured at different doses orally administered (50 and 200 mg/kg of body weight). The extract formulation BTP-00167-14 was administered by oral route concomitantly with wheat starch solutions. Glycemia was measured before and 15, 30, 60, 90, and 120 min after mixture administration. The positive control group received acarbose at 5 mg/kg of body weight together with the starch. The actual volume administered to each rat was calculated and adjusted based on the most recent body weight of each animal. STT onset was between 12:00 p.m. (noon) and 1:00 p.m. on animals fasted overnight. Blood samples (one drop) were collected via the tail vein for glucose determination using a hand-held glucometer before and 15, 30, 60, 90, and 120 min after starch administration. Seven-week old rats weighing around 135 g were used for the experiment. One day before the test, rats were randomly assigned to the different experimental groups. Delta glycemia values were calculated by subtraction of the pre-STT glycemia values (Time 0). Values represent average (i.e. mean) values.

`C[C@H]1O[C@H](O[C@H]2[C@H](O)[C@@H](O)[C@@H](O[C@H]3[C@H](O)[C@@H](O)C(O)O[C@@H]3CO)O[C@@H]2CO)[C@H](O)[C@@H](O)[C@@H]1N[C@H]1C=C(CO)[C@@H](O)[C@H](O)[C@H]1O` (stereo partly drawn) [Acrabose, acarbose] was tested, and the “Glycemia 15 min” value (15 min after starch) was 72.4** mg/dL, the “Glycemia 30 min” value (30 min after starch) was 83.7** mg/dL and the “Glycemia 60 min” value (60 min after starch) was 71.7** mg/dL. For the same compound, the “Glycemia 90 min” value (90 min after starch) was 66.0** mg/dL, the “Glycemia 120 min” value (120 min after starch) was 61.9** mg/dL and the “Glycemia 0 min” value (before administration) was 55.0 mg/dL.
